Assay [1] has as its target T1, human MOR (Homo sapiens, UniProt P35372). Nature of the assay: biochemical. The class given is binding.
The target of assay [2] is T1, human MOR. Nature of the assay: biochemical. The note with it: for Emax: read-out: Efficacy (% Stimulation) MOR, Table 5; for Emax / Efficacy (% Stimulation) MOR: relative to DAMGO at 10 μM.
Assay [3] concerns the target T2, human DOR (Homo sapiens, UniProt P41143). In words: biochemical. The note with it: for Efficacy DOR, percent maximal stimulation: Table 3; for Efficacy DOR, percent maximal stimulation / Efficacy (% Stimulation) DOR: relative to DPDPE at 10 μM; for Efficacy DOR, percent maximal stimulation / Efficacy (% Stimulation) DOR / Potency EC50 DOR: DNS = does not stimulate; for Emax: read-out: Efficacy DOR, percent maximal stimulation; for Potency EC50 DOR: [35S]GTPγS stimulation. In general terms: GTPγS resists hydrolysis and so accumulates on activated G proteins.

The target in assay [4] is T3, human KOR (Homo sapiens, UniProt P41145). In words: [35S]-GTPγS binding assay, CHO-KOR membranes. Type of assay: biochemical. The note with it: for Efficacy KOR, percent maximal stimulation: Table 3; for Efficacy KOR, percent maximal stimulation / Efficacy (% Stimulation) KOR: relative to U69,593 at 10 μM; for Efficacy KOR, percent maximal stimulation / Potency, EC50 KOR / Efficacy (% Stimulation) KOR: DNS = does not stimulate; for Potency, EC50 KOR: [35S]GTPγS stimulation.

Assay [5] addresses T3, human KOR. Type of assay: binding.
The target of assay [6] is T2, human DOR. Nature of the assay: biochemical. Type of assay: binding.

Structures can show the parent of a compound that is named as a salt. Where two headings read alike, the source gives them in different places.

These results are taken from publication PMC9923772 (ACS chemical neuroscience, 2020).

Usually Ki stands for a measure of affinity in units of concentration, obtained from inhibition or displacement. The EC50 is the midpoint of the concentration-response curve. For `Cc1cc(O)cc(C)c1C[C@H](N)C(=O)NCc1cccc(CN2CCCCC2)c1.O=C(O)C(F)(F)F` [A, (S)-3-(4-Hydroxy-2,6-dimethylphenyl)-1-oxo-1-((3-(piperidin-1-ylmethyl)benzyl)amino)propan-2-aminium Trifluoroacetate], affinity at human MOR [1] was put at a Ki of 9.3 ± 1.3 nM. The EC50 on human MOR [2] is above 740 nM. At human DOR [3], the “Efficacy DOR, percent maximal stimulation” value is on record as “DNS”. Moreover, the “Efficacy KOR, percent maximal stimulation” value at human KOR [4] was “DNS”.
In the case of `COc1ccc(CN2CCCCC2)cc1CNC(=O)[C@@H](N)Cc1c(C)cc(O)cc1C.O=C(O)C(F)(F)F` [B, (S)-3-(4-Hydroxy-2,6-dimethylphenyl)-1-((2-methoxy-5-(piperidin-1-ylmethyl)benzyl)amino)-1-oxopropan-2-aminium Trifluoroacetate], at human KOR [5], the Ki stood at 23.5 ± 7.3 nM. Besides, the Emax on human DOR [3] was found to be 37.2 ± 6.2%. Further, at human KOR [4] (Table 2), the “Potency, EC50 KOR” value is given as “DNS”. Besides, the “Efficacy KOR, percent maximal stimulation” value at human KOR [4] is “DNS”.
In the case of `CCCOc1ccc(CN2CCCCC2)cc1CNC(=O)[C@@H](N)Cc1c(C)cc(O)cc1C.O=C(O)C(F)(F)F` [C, (S)-3-(4-Hydroxy-2,6-dimethylphenyl)-1-oxo-1-((5-(piperidin-1-ylmethyl)-2-propoxybenzyl)amino)propan-2-aminium Trifluoroacetate], the Emax on human DOR [3] was determined as 39.9 ± 6.5%. The “Efficacy KOR, percent maximal stimulation” value at human KOR [4] is on record as “DNS”.
`Cc1cc(O)cc(C)c1C[C@H](N)C(=O)NCc1cc(CN2CCCCC2)ccc1OCC1CC1.O=C(O)C(F)(F)F` [D, (S)-1-((2-(Cyclopropylmethoxy)-5-(piperidin-1-ylmethyl)benzyl)amino)-3-(4-hydroxy-2,6-dimethylphenyl)-1-oxopropan-2-aminium Trifluoroacetate]: the Emax at human DOR [3] amounted to 17.7 ± 4.4%. Besides, the “Efficacy KOR, percent maximal stimulation” value at human KOR [4] is recorded as “DNS”.
As for `Cc1cc(O)cc(C)c1C[C@H](N)C(=O)NCc1cccc(CN2CCc3ccccc3C2)c1.O=C(O)C(F)(F)F` [E, (S)-1-((3-((3,4-Dihydroisoquinolin-2(1H)-yl)methyl)benzyl)amino)-3-(4-hydroxy-2,6-dimethylphenyl)-1-oxopropan-2-aminium Trifluoroacetate], the Ki at human MOR [1] amounted to 0.23 ± 0.02 nM; on human KOR [5] it was 46.3 ± 9.7 nM. This compound also returned an EC50 at human MOR [2] of 6.1 ± 3.1 nM. For the same compound, the figures for the Emax at human MOR [2] and at human DOR [3] were 126 ± 20% and 57 ± 6%, respectively. Moreover, at human DOR [3] (Table 5), the “Efficacy (% Stimulation) DOR” value came to 57±6%. Also, the “Potency, EC50 KOR” value at human KOR [4] (Table 2) and on human KOR [4] (Table 5) was “DNS” throughout. Moreover, on human KOR [4], the “Efficacy KOR, percent maximal stimulation” value is “DNS”. Also, at human KOR [4] (Table 5), the “Efficacy (% Stimulation) KOR” value was “DNS”.
Turning to `COc1ccc(CN2CCc3ccccc3C2)cc1CNC(=O)[C@@H](N)Cc1c(C)cc(O)cc1C` [F, (S)-1-((5-((3,4-Dihydroisoquinolin-2(1H)-yl)methyl)-2-methoxybenzyl)amino)-3-(4-hydroxy-2,6-dimethylphenyl)-1-oxopropan-2-aminium Trifluoroacetate], the figures for the Ki at human MOR [1], on human DOR [6] and on human KOR [5] were 0.16 ± 0.05 nM, 3 ± 0.8 nM and 28.4 ± 3.1 nM, respectively. For the same compound, the results for the EC50 on human MOR [2], at human DOR [3] and on human KOR [4] were 2.9 ± 0.5 nM, 5 ± 0.9 nM and above 1000 nM, respectively. In addition, the Emax is 29.8 ± 3.5% at human DOR [3] and above 15% at human KOR [4] (read-out: Efficacy KOR, percent maximal stimulation).
`CCCOc1ccc(CN2CCc3ccccc3C2)cc1CNC(=O)[C@@H](N)Cc1c(C)cc(O)cc1C.O=C(O)C(F)(F)F` [G, (S)-1-((5-((3,4-Dihydroisoquinolin-2(1H)-yl)methyl)-2-propoxybenzyl)amino)-3-(4-hydroxy-2,6-dimethylphenyl)-1-oxopropan-2-aminium Trifluoroacetate]: the results for the Ki on human MOR [1] and on human DOR [6] were 0.22 ± 0.04 nM and 1.4 ± 0.3 nM, respectively. On human MOR [2], this compound displayed an EC50 of 2.6 ± 1.3 nM. Also, the “Potency EC50 DOR” value on human DOR [3] (Table 2) is “DNS”. Further, the “Efficacy DOR, percent maximal stimulation” value at human DOR [3] is listed as “DNS”. The “Efficacy KOR, percent maximal stimulation” value at human KOR [4] is recorded as “DNS”.
As to `Cc1cc(O)cc(C)c1C[C@H](N)C(=O)NCc1cc(CN2CCc3ccccc3C2)ccc1OCC1CC1.O=C(O)C(F)(F)F` [H, (S)-1-((2-(Cyclopropylmethoxy)-5-((3,4-dihydroisoquinolin-2(1H)-yl)methyl)benzyl)amino)-3-(4-hydroxy-2,6-dimethylphenyl)-1-oxopropan-2-aminium Trifluoroacetate], the Ki on human MOR [1] is 0.05 ± 0.01 nM; on human DOR [6], 3.6 ± 0.9 nM; on human KOR [5], 23.5 ± 3.6 nM. This compound registered an EC50 at human MOR [2] of 1.6 ± 0.5 nM. For the same compound, at human DOR [3] (Table 2), the “Potency EC50 DOR” value is “DNS”. In addition, the “Efficacy DOR, percent maximal stimulation” value on human DOR [3] is “DNS”. Besides, the “Potency, EC50 KOR” value at human KOR [4] (Table 2) is “DNS”. Further, the “Efficacy KOR, percent maximal stimulation” value at human KOR [4] is recorded as “DNS”.
In the case of `Cc1cc(O)cc(C)c1C[C@H](N)C(=O)NCCCCCN1CCc2ccccc2C1.O=C(O)C(F)(F)F` [I, (S)-1-((5-(3,4-Dihydroisoquinolin-2(1H)-yl)pentyl)amino)-3-(4-hydroxy-2,6-dimethylphenyl)-1-oxopropan-2-aminium Trifluoroacetate], the Ki on human MOR [1] was found to be 1.5 ± 0.3 nM. The same compound came in with an inhibition constant (Ki) at human KOR [5] of 44.2 ± 5.6 nM. At human MOR [2], the midpoint of the response, the EC50, lay at 15.4 ± 1.3 nM and the Emax is 80.8 ± 4.5%. Besides, the “Efficacy (% Stimulation) DOR” value at human DOR [3] (Table 5) is “DNS”. In addition, on human KOR [4] (Table 5), the “Potency, EC50 KOR” value is reported as “DNS” and the “Efficacy (% Stimulation) KOR” value is reported as “DNS”.
Take `Cc1cc(O)cc(C)c1C[C@H](N)C(=O)NCCOCCN1CCc2ccccc2C1.O=C(O)C(F)(F)F` [J, (S)-1-((2-(2-(3,4-Dihydroisoquinolin-2(1H)-yl)ethoxy)ethyl)amino)-3-(4-hydroxy-2,6-dimethylphenyl)-1-oxopropan-2-aminium Trifluoroacetate]: on human MOR [2] (Table 5), the “Efficacy (% Stimulation) MOR” value stood at 90.7±3.6%. The Emax at human MOR [2] came out at 90.7%. The “Efficacy (% Stimulation) DOR” value at human DOR [3] (Table 5) is 27.4±8.2%. In addition, the “Efficacy (% Stimulation) KOR” value on human KOR [4] (Table 5) came to 22.0±3.8%.
Regarding `Cc1cc(O)cc(C)c1C[C@H](N)C(=O)NCCOCC(=O)N1CCc2ccccc2C1.O=C(O)C(F)(F)F` [K, (S)-1-((2-(2-(3,4-Dihydroisoquinolin-2(1H)-yl)-2-oxoethoxy)-ethyl)amino)-3-(4-hydroxy-2,6-dimethylphenyl)-1-oxopropan-2-aminium Trifluoroacetate], the “Efficacy (% Stimulation) DOR” value at human DOR [3] (Table 5) is recorded as “DNS”. The “Efficacy (% Stimulation) KOR” value on human KOR [4] (Table 5) is on record as “DNS”.
Consider `Cc1cc(O)cc(C)c1C[C@H](N)C(=O)N1CCC(CCN2CCc3ccccc3C2)CC1.O=C(O)C(F)(F)F` [L, (S)-1-(4-(2-(3,4-Dihydroisoquinolin-2(1H)-yl)ethyl)piperidin-1-yl)-3-(4-hydroxy-2,6-dimethylphenyl)-1-oxopropan-2-aminium Trifluoroacetate], for which the inhibition constant (Ki) at human MOR [1] is 1.64 ± 0.62 nM. The compound also returned a Ki on human KOR [5] of 21 ± 5.9 nM. At human MOR [2], the EC50 is 68 ± 19 nM and the Emax worked out at 73 ± 12%. Besides, the “Efficacy (% Stimulation) DOR” value at human DOR [3] (Table 5) is “DNS”. At human KOR [4] (Table 5), the “Potency, EC50 KOR” value is given as “DNS” and the “Efficacy (% Stimulation) KOR” value is given as “DNS”.
`Cc1cc(O)cc(C)c1C[C@H](N)C(=O)N1CCN(CCN2CCc3ccccc3C2)CC1.O=C(O)C(F)(F)F` [M, (S)-1-(4-(2-(3,4-Dihydroisoquinolin-2(1H)-yl)ethyl)piperazin-1-yl)-3-(4-hydroxy-2,6-dimethylphenyl)-1-oxopropan-2-aminium Trifluoroacetate] returned a Ki on human MOR [1] of 3.59 ± 0.4 nM. In addition, the Ki on human DOR [6] is 16.6 ± 4.9 nM. At human MOR [2], the EC50 stood at 56 ± 17 nM and the Emax worked out at 70 ± 16%. Further, on human DOR [3] (Table 5), the “Potency EC50 DOR” value is recorded as “DNS” and the “Efficacy (% Stimulation) DOR” value was “DNS”. Moreover, at human KOR [4] (Table 5), the “Efficacy (% Stimulation) KOR” value is listed as “DNS”.
Consider `Cc1cc(O)cc(C)c1C[C@H](N)C(=O)NCCN(C)CCN1CCc2ccccc2C1.O=C(O)C(F)(F)F` [N, (S)-1-((2-((2-(3,4-Dihydroisoquinolin-2(1H)-yl)ethyl)(methyl)amino)ethyl)amino)-3-(4-hydroxy-2,6-dimethylphenyl)-1-oxopro-pan-2-aminium Trifluoroacetate], for which the Ki at human MOR [1] (read-out: Binding Affinity, Ki MOR, Table 4, simple core compounds, mean ± SEM) turned out to be 1.7 ± 0.39 nM; on human DOR [6] (read-out: Binding Affinity, Ki DOR, Table 4, simple core compounds, mean ± SEM), 77 ± 45 nM; on human KOR [5] (read-out: Binding Affinity, Ki KOR, Table 4, simple core compounds, mean ± SEM), 8.5 ± 1.1 nM. Moreover, the “Efficacy (% Stimulation) MOR” value on human MOR [2] (Table 5) worked out at 80.0±9.5%. In addition, the EC50 on human MOR [2] (read-out: Potency, EC50 MOR, Table 5, [35S]GTPγS stimulation) came out at 24 ± 10 nM. Moreover, the “Efficacy (% Stimulation) KOR” value at human KOR [4] (Table 5) turned out to be 43.0±2.5%.
Take `Cc1cc(O)cc(C)c1C[C@H](N)C(=O)NCC(=O)N(C)CCN1CCc2ccccc2C1.O=C(O)C(F)(F)F` [O, (S)-1-((2-((2-(3,4-Dihydroisoquinolin-2(1H)-yl)ethyl)(methyl)amino)-2-oxoethyl)amino)-3-(4-hydroxy-2,6-dimethylphenyl)-1-oxopropan-2-aminium Trifluoroacetate]: the Emax at human MOR [2] was 53 ± 17%. The “Efficacy (% Stimulation) DOR” value on human DOR [3] (Table 5) is “DNS”. Further, the “Efficacy (% Stimulation) KOR” value on human KOR [4] (Table 5) is “DNS”.
Take `Cc1cc(O)cc(C)c1C[C@H](N)C(=O)NCC(=O)NCCN1CCc2ccccc2C1.O=C(O)C(F)(F)F` [P, (S)-1-((2-((2-(3,4-Dihydroisoquinolin-2(1H)-yl)ethyl)amino)-2-oxoethyl)amino)-3-(4-hydroxy-2,6-dimethylphenyl)-1-oxopropan-2-aminium Trifluoroacetate]: the Emax on human MOR [2] stood at 86.6 ± 3.3%. The “Efficacy (% Stimulation) DOR” value at human DOR [3] (Table 5) is 36.5±1.2%. In addition, at human KOR [4] (Table 5), the “Efficacy (% Stimulation) KOR” value is recorded as “DNS”.
